Literature values in US6077513A, “Drug for treatment of bilharziasis (Schistosomiasis)” (priority 1997, dated 2000).

Assays:
[1] = tested on: isolated guinea pig ileum

Q: Which “smooth muscle relaxing effect” value [1] does the source give for `CC1=C[C@@H]2[C@@H](CC1)[C@@](C)(O)CC[C@H]2C(C)C` [T-Cadinol] here?
A: concentration - dependent smooth muscle relaxing effect

Q: What about the antibacterial effect (Staphylococcus aureus) of the same molecule?
A: bacterial lysis and subsequent fatal loss of intracellular components
